Assay results taken from patent US12479858B2, “Macrocyclic compounds as sting agonists and methods and uses thereof” (Lupin Limited, priority 2019, dated 2025).
Where a name gives a salt, the structure may show the parent alone. Read-outs that look alike come from different tables or passages of the source.

Key:
[1] = test system: Interferon beta (IFNβ), interleukin-6 (IL-6) and tumor necrosis factor alpha (TNFα); assay: Serum and tumor cytokine levels in CT26 tumor-bearing mice (ELISA); type: in vivo, BALB/c mice
Method: (§1) Pharmacokinetic and Pharmacodynamic Profiling and Estimation of Immune Cell Infiltration in Tumors Following Treatment with Compounds 2, 6, 8, 12 and 14
(§2) Serum and tumor cytokine levels and corresponding compound concentrations in mouse plasma were determined following single-dose intravenous administration in CT26 (murine colorectal carcinoma) tumor-bearing mice. Briefly, naïve BALB/c mice in the age group of 6-8 weeks were inoculated with 0.1 million CT-26 cells/animal in phosphate buffered saline (PBS), subcutaneously. […] Blood and tumor samples were harvested at various time points up to 24 h post-dose. Tumor samples were homogenized and prepared for cytokine estimation (ELISA) and compound concentration were determined by LC-MS/MS. Serum aliquots and tumor samples were snap-frozen and stored at −80° C. till further analysis. Serum and tumor samples were evaluated for Interferon beta (IFNβ), interleukin-6 (IL-6) and tumor necrosis factor alpha (TNFα) by enzyme linked immunosorbent assay (ELISA) using kits from R & D systems (Quantikine mouse IL-6 and TNFα kits) and PBL biosciences (Verikine mouse IFNβ kit).
Cytokine analysis from mouse serum samples: For IL-6 and TNFα estimation, 50 μL of test samples or internal standard or control were applied to wells in duplicates and incubated for 2 h at room temperature, followed by aspiration and washing four times with 400 μL of wash buffer. 100 μL of mouse IL-6 or TNFα conjugate solution was added and incubated further for 2 h at room temperature and followed later by 4 wash cycles. 100 μL of substrate solution was added to each well with addition of stop solution after 30 min. Optical density was measured at 450 nm averaged and was used for further calculations following subtraction of respective blank controls. Cytokine concentrations were determined by interpolating the optical density of samples into the reference standard curve utilizing four parameter logistic (4-PL) curve-fit. Cytokine concentrations were normalized with their respective dilution factors and represented in pg/mL. For IFNβ estimation, 100 μL test sample or internal standard or controls were applied to the wells in duplicates and incubated for 1 h at room temperature followed by three washes and addition of the anti-mouse IFNβ antibody solution with further 1 h incubation. This was followed by addition of horseradish peroxidase (HRP) solution and three washes, later addition of TMB substrate and reading the optical density at 450 nm. Optical densities were blank-subtracted and interpolated to the reference standard utilizing the four parameter logistic (4-PL) curve-fit. Cytokine concentrations were normalized with their respective dilution factors and represented in pg/mL. Tables 4 and 5 indicate cytokine levels for compounds 2, 6, 8, 12, and 14 in serum and tumor at different administered doses.
Cytokine analysis from tumor samples: Tumor samples were homogenized in a bead-based homogenizer and lysates were prepared with buffer supplemented with 1% Triton X-100 and protease inhibitors. Cytokine levels were estimated by ELISA and expressed as pg/g tumor.

[2] = Plasma and tumor compound concentrations in CT26 tumor-bearing mice (LC-MS/MS); type: in vivo, BALB/c mice
Method: as §1, §2
Bioanalysis of plasma and tumor samples: Plasma and tumor concentrations of test compounds were determined by LC-MS/MS method. Tumor samples were homogenized utilizing a bead-based homogenizer. Plasma samples and tumor homogenates were extracted using protein precipitation method with organic solution containing respective internal standards. Plasma and tumor concentrations were determined against respective calibration curve. Table 3 indicates the concentration of Compound 2 in plasma and tumor at different administered doses. Table 4 indicates the concentration of Compounds 6, 8, 12, and 14 in plasma and tumor at different administered doses. Table 5 indicates cytokine levels for Compound 2 in serum and tumor at different doses. Table 6 indicates cytokine levels for Compounds 6, 8, 12 and 14 in serum and tumor at 0.375 mpk.

[3] = CT26 tumor-bearing mice, single i.v. dose
[4] = 0.375 mg/kg single i.v., 3.5 h (Table 6)
[5] = 0.375 mg/kg single i.v., 8 h (Table 6)
[6] = 0.375 mg/kg single i.v., 12 h (Table 6)
[7] = 0.375 mg/kg single i.v., 24 h (Table 6)

CCn1nc(C)cc1C(=O)Nc1nc2cc(C(N)=O)cc3c2n1C/C=C/Cn1c(NC(=O)c2cc(C)nn2CC)nc2cc(C(=O)N[C@H]4CC[C@H](C(=O)O)CC4)cc(c21)OCCCO3 [Compound 2, (1R,4R)-4-((E)-12-carbamoyl-1,15-bis(1-ethyl-3-methyl-1H-pyrazole-5-carboxamido)-8,9,16,19-tetrahydro-7H-6,10-dioxa-2,14,15a,19a-tetraazacyclopentadeca[3,2,1-cd:8,9,10-c′d′]diindene-4-carboxamido)cyclohexane-1-carboxylic acid sodium salt]
Serum Cytokines IFNβ ([1]; 0.093 mg/kg single i.v., 3.5 h): 446 pg/mL | Serum Cytokines IL-6 ([1]; 0.093 mg/kg single i.v., 3.5 h): 1323 pg/mL | Serum Cytokines TNFα ([1]; 0.093 mg/kg single i.v., 3.5 h): 261 pg/mL | Tumor Cytokines IFNβ ([1]; 0.093 mg/kg single i.v., 3.5 h): 4000 pg/g | Tumor Cytokines IL-6 ([1]; 0.093 mg/kg single i.v., 3.5 h): 4580 pg/g | Tumor Cytokines TNFα ([1]; 0.093 mg/kg single i.v., 3.5 h): 2460 pg/g | Serum Cytokines IFNβ ([1]; 0.093 mg/kg single i.v., 8 h): 64 pg/mL | Serum Cytokines IL-6 ([1]; 0.093 mg/kg single i.v., 8 h): 662 pg/mL | Serum Cytokines TNFα ([1]; 0.093 mg/kg single i.v., 8 h): 210 pg/mL | Tumor Cytokines IFNβ ([1]; 0.093 mg/kg single i.v., 8 h): 955 pg/g | Tumor Cytokines IL-6 ([1]; 0.093 mg/kg single i.v., 8 h): 1100 pg/g | Tumor Cytokines TNFα ([1]; 0.093 mg/kg single i.v., 8 h): 637 pg/g | Serum Cytokines IFNβ ([1]; 0.187 mg/kg single i.v., 3.5 h): 1920 pg/mL | Serum Cytokines IL-6 ([1]; 0.187 mg/kg single i.v., 3.5 h): 3139 pg/mL | Serum Cytokines TNFα ([1]; 0.187 mg/kg single i.v., 3.5 h): 574 pg/mL | Tumor Cytokines IFNβ ([1]; 0.187 mg/kg single i.v., 3.5 h): 4169 pg/g | Tumor Cytokines IL-6 ([1]; 0.187 mg/kg single i.v., 3.5 h): 4798 pg/g | Tumor Cytokines TNFα ([1]; 0.187 mg/kg single i.v., 3.5 h): 3201 pg/g | Serum Cytokines IFNβ ([1]; 0.187 mg/kg single i.v., 8 h): 127 pg/mL | Serum Cytokines IL-6 ([1]; 0.187 mg/kg single i.v., 8 h): 738 pg/mL | Serum Cytokines TNFα ([1]; 0.187 mg/kg single i.v., 8 h): 136 pg/mL | Tumor Cytokines IFNβ ([1]; 0.187 mg/kg single i.v., 8 h): 962 pg/g | Tumor Cytokines IL-6 ([1]; 0.187 mg/kg single i.v., 8 h): 2244 pg/g | Tumor Cytokines TNFα ([1]; 0.187 mg/kg single i.v., 8 h): 531 pg/g | Serum Cytokines IFNβ ([1]; 0.375 mg/kg single i.v., 3.5 h): 8540 pg/mL | Serum Cytokines IL-6 ([1]; 0.375 mg/kg single i.v., 3.5 h): 6014 pg/mL | Serum Cytokines TNFα ([1]; 0.375 mg/kg single i.v., 3.5 h): 1242 pg/mL | Tumor Cytokines IFNβ ([1]; 0.375 mg/kg single i.v., 3.5 h): 8044 pg/g | Tumor Cytokines IL-6 ([1]; 0.375 mg/kg single i.v., 3.5 h): 8103 pg/g | Tumor Cytokines TNFα ([1]; 0.375 mg/kg single i.v., 3.5 h): 6074 pg/g | Serum Cytokines IFNβ ([1]; 0.375 mg/kg single i.v., 8 h): 263 pg/mL | Serum Cytokines IL-6 ([1]; 0.375 mg/kg single i.v., 8 h): 1201 pg/mL | Serum Cytokines TNFα ([1]; 0.375 mg/kg single i.v., 8 h): 160 pg/mL | Tumor Cytokines IFNβ ([1]; 0.375 mg/kg single i.v., 8 h): 1723 pg/g | Tumor Cytokines IL-6 ([1]; 0.375 mg/kg single i.v., 8 h): 2715 pg/g | Tumor Cytokines TNFα ([1]; 0.375 mg/kg single i.v., 8 h): 617 pg/g | Serum Cytokines IFNβ ([1]; 0.375 mg/kg single i.v., 12 h): 14 pg/mL | Serum Cytokines IL-6 ([1]; 0.375 mg/kg single i.v., 12 h): 372 pg/mL | Serum Cytokines TNFα ([1]; 0.375 mg/kg single i.v., 12 h): 50 pg/mL | Tumor Cytokines IFNβ ([1]; 0.375 mg/kg single i.v., 12 h): 323 pg/g | Tumor Cytokines IL-6 ([1]; 0.375 mg/kg single i.v., 12 h): 2794 pg/g | Tumor Cytokines TNFα ([1]; 0.375 mg/kg single i.v., 12 h): 298 pg/g | cytokine levels over time [1, 3]: sustained cytokine levels | concentration at 3.5 h ([2]; BALB/c, mouse, plasma, intravenous, 0.093 mg/kg single i.v., 3.5 h, read-out: Plasma Conc.): 110 ± 10 nM | concentration at 8 h ([2]; BALB/c, mouse, plasma, intravenous, 0.093 mg/kg single i.v., 8 h, read-out: Plasma Conc.): 30 nM | concentration at 3.5 h ([2]; BALB/c, mouse, plasma, intravenous, 0.187 mg/kg single i.v., 3.5 h, read-out: Plasma Conc.): 220 ± 20 nM | concentration at 8 h ([2]; BALB/c, mouse, plasma, intravenous, 0.187 mg/kg single i.v., 8 h, read-out: Plasma Conc.): 40 ± 10 nM | concentration at 3.5 h ([2]; BALB/c, mouse, plasma, intravenous, 0.375 mg/kg single i.v., 3.5 h (Table 3), read-out: Plasma Conc.): 470 ± 60 nM | concentration at 8 h ([2]; BALB/c, mouse, plasma, intravenous, 0.375 mg/kg single i.v., 8 h (Table 3), read-out: Plasma Conc.): 80 ± 10 nM | concentration at 12 h ([2]; BALB/c, mouse, plasma, intravenous, 0.375 mg/kg single i.v., 12 h (Table 3), read-out: Plasma Conc.): 50 ± 10 nM | concentration at 3.5 h ([2]; BALB/c, mouse, tumor, intravenous, 0.093 mg/kg single i.v., 3.5 h, read-out: Tumor Conc.): 70 ± 20 nM | concentration at 8 h ([2]; BALB/c, mouse, tumor, intravenous, 0.093 mg/kg single i.v., 8 h, read-out: Tumor Conc.): 60 ± 30 nM | concentration at 3.5 h ([2]; BALB/c, mouse, tumor, intravenous, 0.187 mg/kg single i.v., 3.5 h, read-out: Tumor Conc.): 90 ± 20 nM | concentration at 8 h ([2]; BALB/c, mouse, tumor, intravenous, 0.187 mg/kg single i.v., 8 h, read-out: Tumor Conc.): 120 ± 80 nM | concentration at 3.5 h ([2]; BALB/c, mouse, tumor, intravenous, 0.375 mg/kg single i.v., 3.5 h (Table 3), read-out: Tumor Conc.): 230 ± 120 nM | concentration at 8 h ([2]; BALB/c, mouse, tumor, intravenous, 0.375 mg/kg single i.v., 8 h (Table 3), read-out: Tumor Conc.): 140 ± 50 nM | concentration at 12 h ([2]; BALB/c, mouse, tumor, intravenous, 0.375 mg/kg single i.v., 12 h (Table 3), read-out: Tumor Conc.): 110 ± 60 nM | compound levels in tumor [2, 3]: sustained levels in tumor

CCn1nc(C)cc1C(=O)Nc1nc2cc(C(N)=O)cc3c2n1C/C=C/Cn1c(NC(=O)c2cc(C)nn2CC)nc2cc(C(=O)N[C@H]4CC[C@H](c5nnn[nH]5)CC4)cc(c21)OCCCO3 [Compound 6, (E)-N-((1R,4R)-4-(1H-tetrazol-5-yl)cyclohexyl)-1,15-bis(1-ethyl-3-methyl-1H-pyrazole-5-carboxamido)-8,9,16,19-tetrahydro-7H-6,10-dioxa-2,14,15a,19a-tetraazacyclopentadeca[3,2,1-cd:8,9,10-c′d′]diindene-4,12-dicarboxamide sodium salt]
Serum IFNβ [1, 4]: 3375 ± 528.4 pg/mL | Tumor IFNβ [1, 4]: 6931 ± 1236.8 pg/g tumor | Serum IFNβ [1, 5]: 215 ± 39.9 pg/mL | Tumor IFNβ [1, 5]: 1814 ± 369.3 pg/g tumor | Serum IFNβ [1, 6]: BLQ | Tumor IFNβ [1, 6]: 1916 ± 842.7 pg/g tumor | Serum IFNβ [1, 7]: BLQ | Tumor IFNβ [1, 7]: 506 ± 239.1 pg/g tumor | Plasma Conc. ([2]; 0.375 mg/kg single i.v., 24 h (Table 4)): 0.01, BLQ, | concentration at 3.5 h ([2]; BALB/c, mouse, plasma, intravenous, 0.375 mg/kg single i.v., 3.5 h (Table 4), read-out: Plasma Conc.): 440 ± 140 nM | concentration at 8 h ([2]; BALB/c, mouse, plasma, intravenous, 0.375 mg/kg single i.v., 8 h (Table 4), read-out: Plasma Conc.): 130 ± 60 nM | concentration at 12 h ([2]; BALB/c, mouse, plasma, intravenous, 0.375 mg/kg single i.v., 12 h (Table 4), read-out: Plasma Conc.): 50 ± 10 nM | concentration at 3.5 h ([2]; BALB/c, mouse, tumor, intravenous, 0.375 mg/kg single i.v., 3.5 h (Table 4), read-out: Tumor Conc.): 290 ± 120 nM | concentration at 8 h ([2]; BALB/c, mouse, tumor, intravenous, 0.375 mg/kg single i.v., 8 h (Table 4), read-out: Tumor Conc.): 250 ± 40 nM | concentration at 12 h ([2]; BALB/c, mouse, tumor, intravenous, 0.375 mg/kg single i.v., 12 h (Table 4), read-out: Tumor Conc.): 200 ± 50 nM | concentration at 24 h ([2]; BALB/c, mouse, tumor, intravenous, 0.375 mg/kg single i.v., 24 h (Table 4), read-out: Tumor Conc.): 260 ± 30 nM
